Data taken from patent US20140294905A1, “ANTIMICROBIAL TEXTILES” (BACTOGEN BIYOTEKNOLOJIK URUNLER SANAYI VE TICARET ANONIM …, priority 2011, published 2014).

Tests used:
[1] = system: Aspergillus niger; assay: Modified disc diffusion method; details: 25±1° C. for 72 hours
Procedure: (§3) A 100 μl solution containing 10^8 cfu/ml bacteria, 10^6 cfu/ml yeast and 10^4 spores/ml mould is prepared from new cultures and is inoculated respectively onto triptonic soy agar (TSA), Sabouraud Dextrose Agar (SDA) and Potato Dextrose Agar (PDA) through the use of diffusion method. 20 μl of sterile water is dropped onto empty discs and the discs are then dipped into sodium borate in powder format. Discs dipped into sodium borate are then placed on planted petri dishes. As a negative control, blank discs onto which 20 μl of sterile water is dropped are used. As a positive control, Ofloxacin (10 μg/disc) and nystatin (30 μg/disc) are respectively used for bacteria and fungi.
(§4) Planted petri dishes on which modified disc diffusion method is applied are kept at 36±1° C. for 24 hours for bacteria, at 36±1° C. for 48 hours for yeasts and at 25±1° C. for 72 hours for moulds. Antimicrobial activity inhibition zone (a zone where no microorganisms grow) is measured and evaluated for microorganisms tested with modified disc diffusion method. All tests are repeated at least twice.

[2] = system: Candida albicans; assay: Modified disc diffusion method; details: 36±1° C. for 48 hours
Procedure: as §3, §4

[3] = system: Penicillium vinaceum; assay: Antimicrobial tests of textiles on planted petri dishes; format: cell-based; parameters: key: + indicates that (antimicrobial) inhibition zones are observed around the textiles added with sodium borate (FIG. 1-8); details: in vitro, room temperature for 72 hours
Procedure: (§1) Sodium borate-added textiles prepared with three different techniques and the unprocessed textiles to which sodium borate is not added are placed on the petri dishes planted with microorganisms and their antimicrobial efficiency is tested.
(§2) Sodium borate-added textiles fixed with methanol, textiles sprayed with sodium borate dissolved in pH-enhanced water and textiles dyed with water-based textile dye the base of which is prepared by the addition of sodium borate are tested. As a negative control, any possible impact which inhibits the growing of microorganisms on textiles which are not processed is observed. […] Tested antimicrobial activity is evaluated upon the measuring of the inhibition zone of the microorganisms handled. All tests are repeated at least twice.

[4] = system: Aspergillus niger; assay: as above; format: cell-based; parameters: key: + indicates that (antimicrobial) inhibition zones are observed around the textiles added with sodium borate (FIG. 1-8); details: in vitro, room temperature for 72 hours
Procedure: as §1, §2

[5] = system: Botrytis cinerea; assay: as above; format: cell-based; parameters: key: + indicates that (antimicrobial) inhibition zones are observed around the textiles added with sodium borate (FIG. 1-8); details: in vitro, room temperature for 72 hours
Procedure: as §1, §2

[6] = system: Candida glabrata; assay: as above; format: cell-based; parameters: key: + indicates that (antimicrobial) inhibition zones are observed around the textiles added with sodium borate (FIG. 1-8); details: in vitro, 37° C. for 48 hours
Procedure: as §1, §2

[7] = system: Penicillium expansum; assay: as above; format: cell-based; parameters: key: + indicates that (antimicrobial) inhibition zones are observed around the textiles added with sodium borate (FIG. 1-8); details: in vitro, room temperature for 72 hours
Procedure: as §1, §2

[8] = system: Candida albicans; assay: as above; format: cell-based; parameters: key: + indicates that (antimicrobial) inhibition zones are observed around the textiles added with sodium borate (FIG. 1-8); details: in vitro, 37° C. for 48 hours
Procedure: as §1, §2

[9] = system: Fusarium oxysporum; assay: as above; format: cell-based; parameters: key: + indicates that (antimicrobial) inhibition zones are observed around the textiles added with sodium borate (FIG. 1-8); details: in vitro, room temperature for 72 hours
Procedure: as §1, §2

[10] = system: Candida glabrata; assay: Modified disc diffusion method; details: 36±1° C. for 48 hours
Procedure: as §3, §4

[11] = system: Penicillium expansum; assay: Modified disc diffusion method; details: 25±1° C. for 72 hours
Procedure: as §3, §4

[12] = system: Penicillium vinaceum; assay: Modified disc diffusion method; details: 25±1° C. for 72 hours
Procedure: as §3, §4

[13] = system: Fusarium oxysporum; assay: Modified disc diffusion method; details: 25±1° C. for 72 hours
Procedure: as §3, §4

[14] = system: Botrytis cinerea; assay: Modified disc diffusion method; details: 25±1° C. for 72 hours
Procedure: as §3, §4

[15] = system: Pseudomonas aeruginosa; assay: Modified disc diffusion method; details: 36±1° C. for 24 hours
Procedure: as §3, §4

[16] = system: Staphylococcus aureus; assay: Modified disc diffusion method; details: 36±1° C. for 24 hours
Procedure: as §3, §4

[17] = system: Escherichia coli; assay: Modified disc diffusion method; details: 36±1° C. for 24 hours
Procedure: as §3, §4

[18] = system: Pseudomonas aeruginosa; assay: Antimicrobial tests of textiles on planted petri dishes; format: cell-based; parameters: key: + indicates that (antimicrobial) inhibition zones are observed around the textiles added with sodium borate (FIG. 1-8); details: in vitro, 37° C. for 24 hours
Procedure: as §1, §2

[19] = system: Staphylococcus aureus; assay: as above; format: cell-based; parameters: key: + indicates that (antimicrobial) inhibition zones are observed around the textiles added with sodium borate (FIG. 1-8); details: in vitro, 37° C. for 24 hours
Procedure: as §1, §2

[20] = system: Escherichia coli; assay: as above; format: cell-based; parameters: key: + indicates that (antimicrobial) inhibition zones are observed around the textiles added with sodium borate (FIG. 1-8); details: in vitro, 37° C. for 24 hours
Procedure: as §1, §2

[21] = system: MRSA; assay: as above; format: cell-based; parameters: key: + indicates that (antimicrobial) inhibition zones are observed around the textiles added with sodium borate (FIG. 1-8); details: in vitro, 37° C. for 24 hours
Procedure: as §1, §2

C[C@@H]1[C@H](O)[C@@H](C)/C=C/C=C/CC/C=C/C=C/C=C/C=C/C(O[C@H]2O[C@H](C)[C@@H](O)[C@H](N)[C@@H]2O)CC2O[C@](O)(CC(O)C(O)CCC(O)CC(O)CC(O)CC(=O)O[C@H]1C)CC(O)C2C(=O)O (stereo partly shown) [Nystatin]
+: Antimicrobial effect (inhibition zone) [1] | Antimicrobial effect (inhibition zone) [2] | Antimicrobial test result (inhibition zone around textile) [3] | Antimicrobial test result (inhibition zone around textile) [4] | Antimicrobial test result (inhibition zone around textile) [5] | Antimicrobial test result (inhibition zone around textile) [6] | Antimicrobial test result (inhibition zone around textile) [7] | Antimicrobial test result (inhibition zone around textile) [8] | Antimicrobial test result (inhibition zone around textile) [9] | Antimicrobial effect (inhibition zone) [10] | Antimicrobial effect (inhibition zone) [11] | Antimicrobial effect (inhibition zone) [12] | Antimicrobial effect (inhibition zone) [13] | Antimicrobial effect (inhibition zone) [14]

CC1COc2c(N3CCN(C)CC3)c(F)cc3c(=O)c(C(=O)O)cn1c23 (stereo not shown) [Ofloxacin]
+: Antimicrobial effect (inhibition zone) [15] | Antimicrobial effect (inhibition zone) [16] | Antimicrobial effect (inhibition zone) [17] | Antimicrobial test result (inhibition zone around textile) [18] | Antimicrobial test result (inhibition zone around textile) [19] | Antimicrobial test result (inhibition zone around textile) [20] | Antimicrobial test result (inhibition zone around textile) [21]

O.O.O.O.O.O.O.O.O.O.[Na+].[Na+].[O-]B1OB2OB([O-])OB(O1)O2 [Sodium Borate, sodium borate]
+: Antimicrobial effect (inhibition zone) [15] | Antimicrobial effect (inhibition zone) [1] | Antimicrobial effect (inhibition zone) [16] | Antimicrobial effect (inhibition zone) [2] | Antimicrobial effect (inhibition zone) [17] | Antimicrobial effect (inhibition zone) [10] | Antimicrobial effect (inhibition zone) [11] | Antimicrobial effect (inhibition zone) [12] | Antimicrobial effect (inhibition zone) [13] | Antimicrobial effect (inhibition zone) [14]
